Reference: patent US20070270350A1, “Methods and Compositions for the Prevention and Treatment of Inflammatory Diseases or Conditions” (MUSC FOUNDATION FOR RESEARCH DEVELOPMENT, priority 2003, published 2007)

Key:
T cells = test: Cytokine production by PLP139-151-primed DLN cells and naïve T cells; type: cell-based, mouse; conditions: lovastatin 10 and 20 μM, p<0.0001
Description: (A), (C), (E), (G), and (I) DNL cells were isolated on day 10 from PLP139-151 immunized SJL/J mice and cultured in vitro at 5×10^6 cells/ml in the presence of PLP139-151 (5 μg/ml) and lovastatin (10 and 20 μM). (B) (D), (F), (H), and (J) Naïve T cells (98% purified) isolated from lymph nodes were cultured in anti-CD3 and anti-CD28-precoated plates at 1×10^6 cells/ml with lovastatin (10 and 20 μM). The supernatants were collected at 48 h (for IFN-γ and TNF-α) and 120 h (for IL-4, IL-5, and IL-10) for cytokine measurements. […] The values are the means of triplicate determinations at each point, and the error bars represent +/−SD.

Rat Primary Astrrocytes = conditions: LPS 1.0 μg/ml, 24 h
Macrophages = conditions: 10 μM lovastatin or 5 mM NaPA 8 h, LPS 1.0 μg/ml, 24 h
KA-treated rats = test: KA-induced seizure model (epilepsy model), rat hippocampus; type: in vivo; conditions: statin 10 mg/kg orally, 3 days after KA
Description: FIG. 45. Experimental design for the use of statins as a therapeutic for kinic acid induced seizures (epilepsy model).
FIG. 46. […] The rats were orally pre-treated (7 days before) with atorvastatin (LP; 10 mg/kg) prior to KA (10 mg/kg, i.p.). At 3 days after KA injection, neuronal cell death in hippocampus was examined using cresyl violet stain.
FIG. 47. […] The rats were orally pre-treated (7 days before) with atorvastatin (LP; 10 mg/kg) prior to KA (10 mg/kg, i.p.). At 3 days after KA injection, infiltration of macrophages in the CA1 and CA3 regions of the hippocampus was examined using immunofluorescent labeling against for ED-1, as a marker of monocytes.
The rats were orally pre-treated (7 days before) with atorvastatin (LP; 10 mg/kg) prior to KA (10 mg/kg, i.p.). At 3 days after KA injection, neuronal cell death in the CA1 (A) and CA3 (B) regions of the hippocampus was examined using TUNNEL assay.
FIG. 49. […] The rats were orally pre-treated (7 days before) with lovastatin (Lov; 10 mg/kg) prior to KA (10 mg/kg, i.p.). At 3 days after KA injection, neuronal cell death in hippocampus was examined using cresyl violet stain.
(§1) FIG. 50A-C. […] The rats were orally pre-treated (7 days before) with atorvastatin (LP; 10 mg/kg) prior to KA (10 mg/kg, i.p.). At 3 days after KA injection, the expression of inflammatory genes (TNF-α, IL-1β, and iNOS) in hippocampus using real time PCR. The expression of each gene was normalized with GAPDH expression.
as §1, with “51A-C.” for “50A-C.”, “lovastatin (Lov;” for “atorvastatin (LP;”
Seizure index: stage 1, facial clonus; stage 2, nodding; stage 3, forelimb clonus; stage 4, forelimb clonus with rearing; stage 5, rearing, jumping, and falling. The rats were orally pre-treated (7 days before) with lovastatin or atorvastatin (Lov or LP; 10 mg/kg) prior to KA (10 mg/kg, i.p.).

EAE in SJL/J mice = test: Active and passive EAE in SJL/J mice treated with lovastatin; type: in vivo, mouse; conditions: i.p. t or 5 mg/kg lovastatin every day, days 0-60 or started on day 10, p<0.001
NF-κβ = test: Nuclear translocation of NF-κβ in anti-CD3/CD28 stimulated naïve T cells; type: cell-based, mouse; conditions: lovastatin 2 h pretreatment, dose-dependent (5-50 μM); anti-CD3 and CD28 4 h
Microglia = conditions: 10 μM lovastatin or 5 mM NaPA 8 h, LPS 1.0 μg/ml, 24 h
[1] = 48 h, PLP-primed and naïve T cells

What does the source list for `CC[C@H](C)C(=O)O[C@H]1C[C@@H](C)C=C2C=C[C@H](C)[C@H](CC[C@@H]3C[C@@H](O)CC(=O)O3)[C@H]21` [Lovastatin, lovastatin]?
IFN-γ in supernatants (T cells; [1]): significantly reduced; TNF-α in supernatants (T cells; [1]): significantly reduced; IL-4 in supernatants (T cells; 120 h): significantly increased; IL-5 in supernatants (T cells; 120 h): significantly increased; IL-10 in supernatants (T cells; 120 h): significantly increased; TNF-α (Rat Primary Astrrocytes; 10 μM lovastatin or 5 mM NaPA 8 h, LPS only 5.3 +/− 0.8): 0.3 +/− 0.05 ng/24 h/mg protein; Il-1β (Rat Primary Astrrocytes; 10 μM lovastatin or 5 mM NaPA 8 h, LPS only 10.4 +/− 1.5): 0.8 +/− 0.1 ng/24 h/mg protein; IL-6 (Rat Primary Astrrocytes; 10 μM lovastatin or 5 mM NaPA 8 h, LPS only 136.5 +/− 16.8): 0.8 +/− 0.1 ng/24 h/mg protein; NO (Rat Primary Astrrocytes; 10 μM lovastatin or 5 mM NaPA 8 h serum free, LPS only 25.3 +/− 3.2): 5.2 +/− 0.4 n mol/24 h/mg protein; TNF-α (Macrophages; LPS only 18.6 +/− 2.3): 1.2 +/− 0.1 ng/24 h/mg protein; Il-1β (Macrophages; LPS only 34.6 +/− 4.5): 2.3 +/− 0.3 ng/24 h/mg protein; NO (Macrophages; LPS only 118.5 +/− 12.5): 7.2 +/− 0.9 n mol/24 h/mg protein; IL-6 (Macrophages; LPS only 350.0 +/− 27.6): 8.3 +/− 0.6 ng/24 h/mg protein; KA-induced neuronal cell death in hippocampus (cresyl violet stain) (KA-treated rats; 7 days before KA 10 mg/kg i.p.): inhibited; expression of inflammatory genes (TNF-α, IL-1β, and iNOS) induced by KA in hippocampus (real time PCR) (KA-treated rats; 7 days before KA): inhibited; severity of EAE disease (mean clinical scores) (EAE in SJL/J mice): significantly less; nuclear translocation of NF-κβ (NF-κβ): inhibits; TNF-α (Microglia; LPS only 14.5 +/− 2.1): 0.9 +/− 0.1 ng/24 h/mg protein; Il-1β (Microglia; LPS only 28.2 +/− 3.4): 2.1 +/− 0.3 ng/24 h/mg protein; NO (Microglia; LPS only 81.2 +/− 6.9): 5.9 +/− 0.4 n mol/24 h/mg protein; IL-6 (Microglia; LPS only 295.6 +/− 33.5): 7.8 +/− 1.1 ng/24 h/mg protein
